In the supplement of paper PMC10307832:

How the values were obtained:
Test in all cases: relative viability (nuclei count vs DMSO), 5 days (fraction); higher = more cells survive
[1] = compound: CC1CC(=O)N(C2=CN=C(N=C2N1C3CCCC3)NC4=C(C=C(C=C4)C(=O)NC5CCN(CC5)C)OC)C [NPK76-II-72-1] + CC(C)C[C@H](NC(=O)[C@H](Cc1ccccc1)NC(=O)c1cnccn1)B(O)O [Bortezomib] (partner 0.002 µM)
In short: (§1)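 Lung cancer cell lines were seeded in 1536-well plates and dosed by pin tool the next day, with either a single drug or a fixed anchor-drug dose combined with five library-drug doses (not always all listed) spaced in √10 steps. Five days later, one step fixed the cells and stained their nuclei (final 0.05% Triton X-100, 1% formaldehyde, 1 ug/ml Hoechst), and nuclei were counted on 4× images. Relative viability is the nuclei count in treated wells divided by the count in vehicle wells, and each value is the median of duplicate plates.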

[2] = compound: CC1CC(=O)N(C2=CN=C(N=C2N1C3CCCC3)NC4=C(C=C(C=C4)C(=O)NC5CCN(CC5)C)OC)C [NPK76-II-72-1] + CS(=O)(=O)N1CCN(Cc2cc3nc(-c4cccc5[nH]ncc45)nc(N4CCOCC4)c3s2)CC1 [Pictilisib] (partner 1 µM)
In short: as §1

NPK76-II-72-1 + Olaparib = compound: CC1CC(=O)N(C2=CN=C(N=C2N1C3CCCC3)NC4=C(C=C(C=C4)C(=O)NC5CCN(CC5)C)OC)C [NPK76-II-72-1] + O=C(c1cc(Cc2n[nH]c(=O)c3ccccc23)ccc1F)N1CCN(C(=O)C2CC2)CC1 [Olaparib] (partner 8 µM)
In short: as §1

BI-2536 + Dasatinib = compound: CC[C@@H]1C(=O)N(C)c2cnc(Nc3ccc(C(=O)NC4CCN(C)CC4)cc3OC)nc2N1C1CCCC1 [BI-2536] + Cc1nc(Nc2ncc(C(=O)Nc3c(C)cccc3Cl)s2)cc(N2CCN(CCO)CC2)n1 [Dasatinib] (partner 0.075 µM)
In short: as §1

## NCI-H1755
[1]; first compound 0.01 µM
  relative viability: 0.932
[1]; first compound 0.03162 µM
  relative viability: 0.898
[1]; first compound 0.1 µM
  relative viability: 0.95
[1]; first compound 0.3162 µM
  relative viability: 0.98
[1]; first compound 1 µM
  relative viability: 1.08
[2]; first compound 0.01 µM
  relative viability: 0.369
[2]; first compound 0.03162 µM
  relative viability: 0.462
[2]; first compound 0.1 µM
  relative viability: 0.397
[2]; first compound 0.3162 µM
  relative viability: 0.432
[2]; first compound 1 µM
  relative viability: 0.422
NPK76-II-72-1 + Olaparib; first compound 0.01 µM
  relative viability: 0.858
NPK76-II-72-1 + Olaparib; first compound 0.03162 µM
  relative viability: 0.915
NPK76-II-72-1 + Olaparib; first compound 0.1 µM
  relative viability: 0.888
NPK76-II-72-1 + Olaparib; first compound 0.3162 µM
  relative viability: 0.827
NPK76-II-72-1 + Olaparib; first compound 1 µM
  relative viability: 0.893
BI-2536 + Dasatinib; first compound 0.01 µM
  relative viability: 0.452
BI-2536 + Dasatinib; first compound 0.03162 µM
  relative viability: 0.391
BI-2536 + Dasatinib; first compound 0.1 µM
  relative viability: 0.271
BI-2536 + Dasatinib; first compound 0.3162 µM
  relative viability: 0.195
BI-2536 + Dasatinib; first compound 1 µM
  relative viability: 0.198

## NCI-H3122
[1]; first compound 0.01 µM
  relative viability: 1
[1]; first compound 0.03162 µM
  relative viability: 1.01
[1]; first compound 0.1 µM
  relative viability: 0.935
[1]; first compound 0.3162 µM
  relative viability: 1.03
[1]; first compound 1 µM
  relative viability: 1.02
[2]; first compound 0.01 µM
  relative viability: 0.625
[2]; first compound 0.03162 µM
  relative viability: 0.618
[2]; first compound 0.1 µM
  relative viability: 0.601
[2]; first compound 0.3162 µM
  relative viability: 0.652
[2]; first compound 1 µM
  relative viability: 0.63
NPK76-II-72-1 + Olaparib; first compound 0.01 µM
  relative viability: 0.6
NPK76-II-72-1 + Olaparib; first compound 0.03162 µM
  relative viability: 0.6
NPK76-II-72-1 + Olaparib; first compound 0.1 µM
  relative viability: 0.722
NPK76-II-72-1 + Olaparib; first compound 0.3162 µM
  relative viability: 0.653
NPK76-II-72-1 + Olaparib; first compound 1 µM
  relative viability: 0.589
BI-2536 + Dasatinib; first compound 0.01 µM
  relative viability: 0.813
BI-2536 + Dasatinib; first compound 0.03162 µM
  relative viability: 0.878
BI-2536 + Dasatinib; first compound 0.1 µM
  relative viability: 0.158
BI-2536 + Dasatinib; first compound 0.3162 µM
  relative viability: 0.0979
BI-2536 + Dasatinib; first compound 1 µM
  relative viability: 0.104

## PC-14
[1]; first compound 0.01 µM
  relative viability: 0.809
[1]; first compound 0.03162 µM
  relative viability: 0.849
[1]; first compound 0.1 µM
  relative viability: 0.892
[1]; first compound 0.3162 µM
  relative viability: 0.839
[1]; first compound 1 µM
  relative viability: 1.08
[2]; first compound 0.01 µM
  relative viability: 0.6
[2]; first compound 0.03162 µM
  relative viability: 0.692
[2]; first compound 0.1 µM
  relative viability: 0.619
[2]; first compound 0.3162 µM
  relative viability: 0.6
[2]; first compound 1 µM
  relative viability: 0.805
NPK76-II-72-1 + Olaparib; first compound 0.01 µM
  relative viability: 0.295
NPK76-II-72-1 + Olaparib; first compound 0.03162 µM
  relative viability: 0.377
NPK76-II-72-1 + Olaparib; first compound 0.1 µM
  relative viability: 0.384
NPK76-II-72-1 + Olaparib; first compound 0.3162 µM
  relative viability: 0.267
NPK76-II-72-1 + Olaparib; first compound 1 µM
  relative viability: 0.32
BI-2536 + Dasatinib; first compound 0.01 µM
  relative viability: 0.269
BI-2536 + Dasatinib; first compound 0.1 µM
  relative viability: 0.0367
BI-2536 + Dasatinib; first compound 0.3162 µM
  relative viability: 0.0318
BI-2536 + Dasatinib; first compound 1 µM
  relative viability: 0.0158

## NCI-H2347
[1]; first compound 0.01 µM
  relative viability: 0.827
[1]; first compound 0.03162 µM
  relative viability: 1.24
[1]; first compound 0.1 µM
  relative viability: 0.697
[1]; first compound 0.3162 µM
  relative viability: 0.756
[1]; first compound 1 µM
  relative viability: 1.01
[2]; first compound 0.01 µM
  relative viability: 0.811
[2]; first compound 0.03162 µM
  relative viability: 0.817
[2]; first compound 0.1 µM
  relative viability: 0.727
[2]; first compound 0.3162 µM
  relative viability: 0.773
[2]; first compound 1 µM
  relative viability: 0.631
NPK76-II-72-1 + Olaparib; first compound 0.01 µM
  relative viability: 0.525
NPK76-II-72-1 + Olaparib; first compound 0.03162 µM
  relative viability: 0.632
NPK76-II-72-1 + Olaparib; first compound 0.1 µM
  relative viability: 0.612
NPK76-II-72-1 + Olaparib; first compound 0.3162 µM
  relative viability: 0.508
NPK76-II-72-1 + Olaparib; first compound 1 µM
  relative viability: 0.658
BI-2536 + Dasatinib; first compound 0.03162 µM
  relative viability: 0.293
BI-2536 + Dasatinib; first compound 0.1 µM
  relative viability: 0.285
BI-2536 + Dasatinib; first compound 0.3162 µM
  relative viability: 0.278
BI-2536 + Dasatinib; first compound 1 µM
  relative viability: 0.167

## NCI-H2228
[1]; first compound 0.01 µM
  relative viability: 0.799
[1]; first compound 0.03162 µM
  relative viability: 0.81
[1]; first compound 0.1 µM
  relative viability: 0.935
[1]; first compound 0.3162 µM
  relative viability: 0.942
[1]; first compound 1 µM
  relative viability: 1.31
[2]; first compound 0.01 µM
  relative viability: 0.359
[2]; first compound 0.03162 µM
  relative viability: 0.497
[2]; first compound 0.1 µM
  relative viability: 0.503
[2]; first compound 0.3162 µM
  relative viability: 0.402
[2]; first compound 1 µM
  relative viability: 0.483
NPK76-II-72-1 + Olaparib; first compound 0.01 µM
  relative viability: 0.561
NPK76-II-72-1 + Olaparib; first compound 0.03162 µM
  relative viability: 0.666
NPK76-II-72-1 + Olaparib; first compound 0.1 µM
  relative viability: 0.841
NPK76-II-72-1 + Olaparib; first compound 0.3162 µM
  relative viability: 0.597
NPK76-II-72-1 + Olaparib; first compound 1 µM
  relative viability: 0.817
BI-2536 + Dasatinib; first compound 0.01 µM
  relative viability: 0.448
BI-2536 + Dasatinib; first compound 0.03162 µM
  relative viability: 0.372
BI-2536 + Dasatinib; first compound 0.1 µM
  relative viability: 0.116
BI-2536 + Dasatinib; first compound 0.3162 µM
  relative viability: 0.0877
BI-2536 + Dasatinib; first compound 1 µM
  relative viability: 0.0886

## EKVX
[1]; first compound 0.01 µM
  relative viability: 1.01
[1]; first compound 0.03162 µM
  relative viability: 0.998
[1]; first compound 0.1 µM
  relative viability: 1.03
[1]; first compound 0.3162 µM
  relative viability: 0.637
[1]; first compound 1 µM
  relative viability: 1.04
[2]; first compound 0.01 µM
  relative viability: 0.418
[2]; first compound 0.03162 µM
  relative viability: 0.437
[2]; first compound 0.1 µM
  relative viability: 0.437
[2]; first compound 0.3162 µM
  relative viability: 0.388
[2]; first compound 1 µM
  relative viability: 0.508
NPK76-II-72-1 + Olaparib; first compound 0.01 µM
  relative viability: 0.755
NPK76-II-72-1 + Olaparib; first compound 0.03162 µM
  relative viability: 0.898
NPK76-II-72-1 + Olaparib; first compound 0.1 µM
  relative viability: 0.735
NPK76-II-72-1 + Olaparib; first compound 1 µM
  relative viability: 1.02
BI-2536 + Dasatinib; first compound 0.01 µM
  relative viability: 0.742
BI-2536 + Dasatinib; first compound 0.03162 µM
  relative viability: 0.653
BI-2536 + Dasatinib; first compound 0.1 µM
  relative viability: 0.586
BI-2536 + Dasatinib; first compound 0.3162 µM
  relative viability: 0.399
BI-2536 + Dasatinib; first compound 1 µM
  relative viability: 0.174

## HOP-62
[1]; first compound 0.01 µM
  relative viability: 0.743
[1]; first compound 0.03162 µM
  relative viability: 0.754
[1]; first compound 0.1 µM
  relative viability: 0.433
[1]; first compound 0.3162 µM
  relative viability: 0.916
[1]; first compound 1 µM
  relative viability: 0.824
[2]; first compound 0.01 µM
  relative viability: 0.606
[2]; first compound 0.03162 µM
  relative viability: 0.766
[2]; first compound 0.1 µM
  relative viability: 0.778
[2]; first compound 0.3162 µM
  relative viability: 0.696
[2]; first compound 1 µM
  relative viability: 0.613
NPK76-II-72-1 + Olaparib; first compound 0.01 µM
  relative viability: 0.389
NPK76-II-72-1 + Olaparib; first compound 0.03162 µM
  relative viability: 0.351
NPK76-II-72-1 + Olaparib; first compound 0.1 µM
  relative viability: 0.466
NPK76-II-72-1 + Olaparib; first compound 1 µM
  relative viability: 0.465
BI-2536 + Dasatinib; first compound 0.01 µM
  relative viability: 0.618
BI-2536 + Dasatinib; first compound 0.03162 µM
  relative viability: 0.665
BI-2536 + Dasatinib; first compound 0.1 µM
  relative viability: 0.515
BI-2536 + Dasatinib; first compound 0.3162 µM
  relative viability: 0.173
BI-2536 + Dasatinib; first compound 1 µM
  relative viability: 0.167

## NCI-H2126
[1]; first compound 0.01 µM
  relative viability: 1.01
[1]; first compound 0.03162 µM
  relative viability: 1.16
[1]; first compound 0.1 µM
  relative viability: 1.11
[1]; first compound 0.3162 µM
  relative viability: 1.07
[1]; first compound 1 µM
  relative viability: 1.16
[2]; first compound 0.01 µM
  relative viability: 0.508
[2]; first compound 0.03162 µM
  relative viability: 0.517
[2]; first compound 0.1 µM
  relative viability: 0.457
[2]; first compound 0.3162 µM
  relative viability: 0.507
[2]; first compound 1 µM
  relative viability: 0.476
NPK76-II-72-1 + Olaparib; first compound 0.01 µM
  relative viability: 0.903
NPK76-II-72-1 + Olaparib; first compound 0.03162 µM
  relative viability: 0.897
NPK76-II-72-1 + Olaparib; first compound 0.1 µM
  relative viability: 0.901
NPK76-II-72-1 + Olaparib; first compound 0.3162 µM
  relative viability: 0.855
NPK76-II-72-1 + Olaparib; first compound 1 µM
  relative viability: 0.956
BI-2536 + Dasatinib; first compound 0.01 µM
  relative viability: 0.659
BI-2536 + Dasatinib; first compound 0.03162 µM
  relative viability: 0.58
BI-2536 + Dasatinib; first compound 0.1 µM
  relative viability: 0.294
BI-2536 + Dasatinib; first compound 0.3162 µM
  relative viability: 0.26
BI-2536 + Dasatinib; first compound 1 µM
  relative viability: 0.224
